This note sets out measurements from patent publication US6632447B1, “Method for chemoprevention of prostate cancer” (The University of Tennessee Research Corporation, priority 1998, dated 2003).

The test system of series [1] is prostate tumor in TRAMP mice. The experiment in a line: Prostatic wholemount, histology and large T antigen immunohistochemistry in TRAMP mice. The series is classed as in vivo, mouse. Particulars: vs placebo at 15 weeks. As for the experimental part: This present study focuses on the histological and molecular changes associated with development of prostate tumor in control animals and the mechanism of toremifene chemopreventive action with TRAMP animals which are bred, screened and treated with sustained-release drug pellets. At predetermined times, groups of 5 animals were sacrificed and their prostates were removed for analysis. The prostate glands were evaluated for the presence of tumor by histology, wholemount dissections, and large T antigen immunohistochemistry. To date, the Placebo and the Toremifene treatments have been completed for the 7, 10, 15 and 20 week time-points and the results are described below.
Prostatic wholemounts for 7, 10, 15, and 20 weeks for the various groups have been completed. […] By 20 weeks, there is a striking delay in tumor occurrence in the Toremifene treated group up to 35 weeks FIG. 4). […] For histological evaluation, tissue samples were fixed, processed and paraffin embedded. Sections ([…]) were cut and stained by routine H&E method.

Series [2] deals with human stromal fibroblast cells. Nature of the series: TGF synthesis in human stromal fibroblast cells. The series is classed as cell-based.
In series [3] the test system is prostate cancer in the ventral prostate of TRAMP mice. Nature of the series: Chemopreventive activity of toremifene pellets in TRAMP transgenic mice (palpable tumor formation). The series is classed as in vivo, mouse. The source says:
The study of prostate cancer chemoprevention has been hindered by the lack of appropriate animal models. The recent development of the transgenic adenocarcinoma mouse prostate (TRAMP) model enables the study of chemoprevention. In the TRAMP model, which is described in Greenberg et al., AProstate cancer in a transgenic mouse, Proc. Natl Acad. Sci. USA, 1995, Vol. 92, pages 3439-3443, the PB-SV40 large T antigen (PB-Tag) transgene is expressed specifically in the epithelial cells of the murine prostate. […]
A study was undertaken to test the efficacy of chemopreventive agents in TRAMP transgenic animals (PBTag X FVBwt) (provided by Dr. Norman Greenberg, Baylor College of Medicine, TX). […] The efficacy of the treatment was measured by the absence of palpable tumor formation. The murine prostate tumors were harvested and evaluated by molecular and histological techniques.

Series [4] has as its system prostate intraepithelial neoplasia (PIN). Nature of the series: Phase IIa prostate cancer chemoprevention human clinical trial (PIN regression). The series is classed as in vivo. Particulars: 60 mg daily for 4 months. The protocol: A Phase IIa, open labeled non randomized single center study with 21 human subjects was conducted. […] After 4 months, patients are rebiopsied (8 biopsies) and PIN status is reassessed. Twenty-one patients entered the study and sixteen patients have completed the study.

For series [5], the system named is TRAMP mouse ventral prostate. The experiment in a line: Histological examination (H&E) of ventral prostate tissue of TRAMP mice. The series is classed as in vivo. Particulars: toremifene-treated 30-week-old TRAMP mouse vs placebo-treated 16-week-old. The protocol: 1) Prostate wholemount analysis is serially performed to detect changes in prostate ductal morphology over time with and without treatment; examples are shown in FIG. 2. Tissue sections are evaluated histologically by H&E and Masson-trichome standard staining. The emergence of PIN is assessed and graded (I-mild to III-severe).
Tumors from the placebo and high toremifene-treated groups taken at the time of palpation were evaluated histologically. FIG. 2A is an H&E section of the ventral prostate of a 17-week-old normal adult mouse.

Structures are written as SMILES.

For `CN(C)CCOc1ccc(/C(=C(/CCCl)c2ccccc2)c2ccccc2)cc1` [Toremifene, toremifene], the “ductal development and tissue differentiation (H&E histology)” value in series [1] was “inhibited the ductal development and tissue differentiation”. For the same molecule, the “TGF? synthesis” value in series [2] is recorded as “significantly induce TGF? synthesis”. Further, in series [3] (high and low toremifene groups versus placebo), the “delay of time to tumors in 25% of the animals” value is given as 7-8 weeks. The “week by which tumors were palpable in 25% of the animals” value in series [3] (high and low toremifene groups, placebo week 23) is 30-31 weeks. Moreover, the “serum PSA, serum free testosterone, serum total testosterone and serum estradiol” value in series [4] is “remained in the normal ranges”. Also, the “patients with regression of PIN to benign or atrophic prostate tissue (complete response)” value in series [4] (16 patients completed) is listed as 12 out of 16. Further, in series [5], the “glandular architecture of the prostate (H&E)” value is “retains much of the normal glandular architecture” and the mitotic index result is reported as “much lower than that for the placebo-treated animal”.
